According to patent publication US10328077B2 (CELGENE CORPORATION, priority 2016, dated 2019):
Like-named read-outs stand apart in the source and are kept apart here.

What was measured:
[1] = tested on: ST18 and FREM2 gene expression in MKL-1 or MS-1 tumors; assay: qRT-PCR of candidate PD biomarker genes in hMCC xenografts (dose-response); assay type: in vivo, mice; conditions: 1, 2.5, or 5 mg/kg PO BID×4.5, both models
Experimental: Female NSG mice bearing palpable hMCC MKL-1 and MS-1 tumors were randomized into four groups of three mice each. Three groups were orally administered Compund A as monotherapy at 1, 2.5, or 5 mg/kg on a twice daily dosing schedule for nine doses (BID×4.5). The fourth group was orally administered vehicle as a control on the BID schedule. Four hours after the last dosing, tumors were collected into RNAlater and stored frozen.
Total RNA was eluted in RNase-free water and analyzed by qRT-PCR.

[2] = Pharmacokinetics after IV and oral dose, mice; assay type: in vivo, CD-1 mice; conditions: mouse
[3] = Exploratory toxicity study in mice; assay type: in vivo, CD-1 mice; conditions: for reduction in neutrophil counts: 60 mg/kg/dose QOD
Excerpt: Additional animals were included for TK evaluation.

[4] = tested on: LXFS 615 SCLC patient-derived xenograft; assay: LXFS 615 SCLC PDX model; assay type: in vivo, mice
LXFS 615 SCLC PDX model = assay type: in vivo, mice; conditions: female, NMRI-Foxnlnu, mouse, oral; 5 mg base/kg, plasma after final dose; read-out: AUC0-24
CYP2C9 = CYP2C9 (Homo sapiens (Human), UniProt P11712); assay: CYP inhibition in pooled human liver microsomes, CYP2C9; assay type: in vitro ADME; conditions: up to 50 μM
Sequence of CYP2C9 (P11712 whole entry): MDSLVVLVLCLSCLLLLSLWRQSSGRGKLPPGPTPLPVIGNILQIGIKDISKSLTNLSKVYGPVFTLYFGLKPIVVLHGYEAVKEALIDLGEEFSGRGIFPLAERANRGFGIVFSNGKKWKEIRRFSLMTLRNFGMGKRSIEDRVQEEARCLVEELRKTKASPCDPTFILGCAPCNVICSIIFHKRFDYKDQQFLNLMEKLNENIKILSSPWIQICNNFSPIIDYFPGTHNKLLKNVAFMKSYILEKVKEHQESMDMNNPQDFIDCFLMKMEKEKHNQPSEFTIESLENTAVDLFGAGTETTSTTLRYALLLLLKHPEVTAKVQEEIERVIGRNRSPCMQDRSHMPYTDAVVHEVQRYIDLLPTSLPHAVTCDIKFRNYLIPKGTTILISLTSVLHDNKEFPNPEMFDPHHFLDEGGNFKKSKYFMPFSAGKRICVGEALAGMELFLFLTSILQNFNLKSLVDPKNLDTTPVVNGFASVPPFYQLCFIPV

[5] = Beagle, dog, in vivo, po
[6] = tested on: LXFS 573 SCLC patient-derived xenograft; assay: LXFS 573 SCLC PDX model (monotherapy); assay type: in vivo, mice; conditions: for % TGI / TGI: Day 28
[7] = tested on: LU2514 SCLC patient-derived xenograft; assay: LU2514 HuPrime SCLC PDX model; assay type: in vivo, mice
Experimental: Tumor growth inhibition analysis was performed on Day 28 post treatment, the last day of dosing.

LXFS 1129 SCLC PDX model = assay: LXFS 1129 SCLC PDX model; parameters: species or system mice; conditions: female, NMRI-Foxnlnu, mouse, in vivo, oral, read-out: AUC0-24
hERG potassium channel = hERG potassium channel (Homo sapiens (Human), UniProt Q12809); assay: in vitro; conditions: HEK293 cells stably expressing hERG channels
Sequence of hERG potassium channel (Q12809 whole entry, the tested form may be a part): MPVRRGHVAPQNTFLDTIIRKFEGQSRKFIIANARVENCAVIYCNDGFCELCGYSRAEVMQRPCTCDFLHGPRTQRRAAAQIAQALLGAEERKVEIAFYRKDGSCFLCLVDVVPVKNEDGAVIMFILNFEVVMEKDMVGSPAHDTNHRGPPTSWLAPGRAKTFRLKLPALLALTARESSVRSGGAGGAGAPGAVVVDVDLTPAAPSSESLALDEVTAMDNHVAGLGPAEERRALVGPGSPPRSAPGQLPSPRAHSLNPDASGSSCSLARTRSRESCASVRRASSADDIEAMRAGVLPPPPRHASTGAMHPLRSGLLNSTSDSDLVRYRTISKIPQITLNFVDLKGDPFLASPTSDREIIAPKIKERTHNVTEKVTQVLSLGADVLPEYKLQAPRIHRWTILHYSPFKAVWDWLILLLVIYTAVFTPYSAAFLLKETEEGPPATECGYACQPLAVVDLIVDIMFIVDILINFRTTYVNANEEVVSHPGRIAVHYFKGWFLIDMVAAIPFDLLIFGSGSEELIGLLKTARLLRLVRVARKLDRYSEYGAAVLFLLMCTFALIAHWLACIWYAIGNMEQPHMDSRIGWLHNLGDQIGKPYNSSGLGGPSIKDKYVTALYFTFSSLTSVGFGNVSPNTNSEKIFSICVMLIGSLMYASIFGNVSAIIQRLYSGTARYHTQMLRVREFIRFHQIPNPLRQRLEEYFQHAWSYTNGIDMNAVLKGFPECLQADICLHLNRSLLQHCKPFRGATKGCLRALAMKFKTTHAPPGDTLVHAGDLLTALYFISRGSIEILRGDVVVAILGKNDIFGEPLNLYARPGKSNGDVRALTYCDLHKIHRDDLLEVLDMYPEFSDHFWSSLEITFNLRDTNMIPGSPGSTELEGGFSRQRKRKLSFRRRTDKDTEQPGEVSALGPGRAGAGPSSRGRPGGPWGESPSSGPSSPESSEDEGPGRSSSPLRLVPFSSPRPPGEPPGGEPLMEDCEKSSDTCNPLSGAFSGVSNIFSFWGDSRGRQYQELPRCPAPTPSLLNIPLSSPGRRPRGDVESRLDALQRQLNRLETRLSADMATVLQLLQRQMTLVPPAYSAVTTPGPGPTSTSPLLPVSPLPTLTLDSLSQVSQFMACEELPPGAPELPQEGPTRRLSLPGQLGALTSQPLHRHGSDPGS

[8] = Hemodynamic and ECG parameters in anesthetized guinea pigs; assay type: in vivo, Dunkin Hartley guinea pigs; conditions: for concentration at 10 min: male, Dunkin Hartley, plasma, read-out: mean plasma concentration at end of infusion
Excerpt: Animals were monitored throughout the experiment.

CYP3A4 = CYP3A4 (Homo sapiens (Human), UniProt P08684); assay: CYP inhibition in pooled human liver microsomes, CYP3A4; assay type: in vitro ADME
Sequence of CYP3A4 (P08684 whole entry): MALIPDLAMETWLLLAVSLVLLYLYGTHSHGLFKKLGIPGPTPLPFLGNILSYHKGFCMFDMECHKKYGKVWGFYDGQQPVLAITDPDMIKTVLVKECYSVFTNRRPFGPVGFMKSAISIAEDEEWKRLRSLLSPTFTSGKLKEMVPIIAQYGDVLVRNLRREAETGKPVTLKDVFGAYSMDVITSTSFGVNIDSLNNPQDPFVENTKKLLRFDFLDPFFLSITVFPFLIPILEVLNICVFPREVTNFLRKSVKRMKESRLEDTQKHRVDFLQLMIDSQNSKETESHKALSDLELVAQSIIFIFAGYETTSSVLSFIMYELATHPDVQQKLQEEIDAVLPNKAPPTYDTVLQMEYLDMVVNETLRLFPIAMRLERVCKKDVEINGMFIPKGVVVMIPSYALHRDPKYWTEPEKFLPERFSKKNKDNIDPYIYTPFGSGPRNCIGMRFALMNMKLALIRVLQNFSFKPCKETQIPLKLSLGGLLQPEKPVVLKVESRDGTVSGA

in vivo = conditions: Crl:CD1(ICR), mouse, plasma, po, 15 mg/kg
MS-1 hMCC xenograft = assay type: in vivo; conditions: 5 mg/kg PO 5 on/2 off
[9] = 4-week oral gavage pivotal toxicity study with 4-week recovery in dogs (incl. ECG, TK); assay type: in vivo, Beagle dogs; conditions: for AUC(0-t): Beagle, po, AUC0-168
Experimental: The QTc interval was calculated using the Fridericia method.

LNCaP cells = assay: LNCaP cell proliferation with DHT and irradiation; assay type: cell-based, human; conditions: 10 nM DHT + 100 nM Compound A + 2Gy irradiation vs DHT + irradiation or DHT + Compound A, 220 hours
Experimental: LNCaP cells are androgen-sensitive human prostate adenocarcinoma cells. […] The proliferation of the LNCap cells was monitored for 220 hours.

[10] = tested on: LXFS 2156 SCLC patient-derived xenograft; assay: LXFS 2156 SCLC PDX model; assay type: in vivo, mice; conditions: 5 mg base/kg oral QD×23
[11] = CD-1, plasma, female, single IV dose 5 mg
[12] = CD-1, plasma, female, single oral dose 10 mg base/kg

COc1ccc(-c2c(-c3ccc(C#N)c(F)c3)nc(N3CCC(N)CC3)n(C)c2=O)cc1F [Compound A, 4-[2-(4-amino-piperidin-1-yl)-5-(3-fluoro-4-methoxy-phenyl)-1-methyl-6-oxo-1,6-dihydro-pyrimidin-4-yl]-2-fluoro-benzonitrile]
ST18 and FREM2 change in gene expression in vivo [1]: ≥ 2 fold | half-life ([2]; CD-1 (mice), Sprague Dawley (rats), plasma, IV, rodents (mice, rats), read-out: half-life): 2 to 4 h | Tmax ([2]; CD-1, Sprague Dawley, Beagle, plasma, oral, across mice, rats, dogs, monkeys, read-out: median tmax): 0.5 to 6 h | bioavailability ([2]; CD-1, Sprague Dawley, plasma, po, rodents, read-out: oral bioavailability): 28 to 74% | AUC(0-inf) [2, 11]: 2660 ng·h/mL | AUC(0-t) [2, 11]: 2220 ng·h/mL | clearance [2, 11]: 32 mL/min/kg | Vd ([2]; CD-1, plasma, female, single IV dose 5 mg, read-out: Vss): 7.51 L/kg | half-life ([2]; CD-1, plasma, female, single IV dose 5 mg, read-out: t1/2, z (converted)): 3.8 h | AUC(0-t) [2, 12]: 2010 ng·h/mL | Cmax [2, 12]: 510 ng/mL | bioavailability ([2]; CD-1, plasma, female, single oral dose 10 mg base/kg, read-out: % F): 38% | half-life ([2]; CD-1, plasma, female, single oral dose 10 mg base/kg, read-out: t1/2, z (converted)): 1.7 h | Tmax ([2]; CD-1, plasma, female, single oral dose 10 mg base/kg, read-out: tmax): 0.5 h | increase in platelets on Day 8 ([3]; 10 mg/kg/day 5 days on/2 days off, vs end of first dosing period): > 2 fold | reduction in neutrophil counts ([3]; females): 66% | reduction in neutrophil counts ([3]; males): 83% | increased spleen weights ([3]; 30 or 60 mg/kg/dose 5 days on/2 days off): up to 2 fold | greatest reduction in neutrophil counts ([3]; 5 days on/2 days off schedule, vs concurrent controls and pre-study values): approximately 90% | circulating platelets ([3]; all dose levels, end of study): reduced | mean body weight loss ([4]; 5 mg base/kg): < 1% | TGI ([4]; 5 mg base/kg oral for 30 days): 78% | AUC(0-t) (LXFS 615 SCLC PDX model): 1620 ng·h/mL | direct inhibition of CYP2C9 (CYP2C9): little to no direct inhibitory effect | AUC0-96 ([5]; female): 127 ng·h/mL | Cmax ([5]; female): 5.77 ng/mL | AUC0-96 ([5]; female, 0.25 mg/kg): 272 ng·h/mL | Cmax ([5]; female, 0.25 mg/kg): 11.5 ng/mL | AUC0-96 ([5]; female, 0.5 mg/kg): 618 ng·h/mL | AUC0-96 ([5]; male): 114 ng·h/mL | Cmax ([5]; male): 5.81 ng/mL | AUC0-96 ([5]; male, 0.25 mg/kg): 302 ng·h/mL | Cmax ([5]; male, 0.25 mg/kg): 10.5 ng/mL | AUC0-96 ([5]; male, 0.5 mg/kg): 653 ng·h/mL | Median Tumor Volume Day 28 ([6]; 5 mg base/kg PO QDx28): 308.3 mm^3 | Median Tumor Volume Diff. (Day 28 - Day 0) ([6]; 5 mg base/kg PO QDx28): 199.9 mm^3 | % TGI ([6]; 5 mg base/kg PO QDx28): 78% | TGI ([6]; 5 mg base/kg oral): 78% | Median Tumor Volume Day 28 ([6]; 7.5 mg base/kg PO QDx28): 496.6 mm^3 | Median Tumor Volume Diff. (Day 28 - Day 0) ([6]; 7.5 mg base/kg PO QDx28): 383.4 mm^3 | Median Tumor Volume Day 28 ([6]; 10 mg base/kg PO QDx28): 376.8 mm^3 | Median Tumor Volume Diff. (Day 28 - Day 0) ([6]; 10 mg base/kg PO QDx28): 263.0 mm^3 | % TGI ([6]; 10 mg base/kg PO QDx28): 71% | TGI ([6]; 10 mg/kg oral): 71% | mean body weight loss ([6]; mouse, in vivo): ≤ 3% | Median Tumor Volume Day 28 ([7]; 5 mg base/kg PO QDx28): 1244.8 mm^3 | Median Tumor Volume Diff. (Day 28 - Day 1) ([7]; 5 mg base/kg PO QDx28): 1071.6 mm^3 | Median Tumor Volume Day 28 ([7]; 10 mg base/kg PO QDx28): 906.0 mm^3 | Median Tumor Volume Diff. (Day 28 - Day 1) ([7]; 10 mg base/kg PO QDx28): 732.3 mm^3 | mean body weight loss ([7]; both LU2514 studies): < 10% | AUC(0-t) (LXFS 1129 SCLC PDX model; 1.5 mg base/kg): 243 ng·h/mL | AUC(0-t) (LXFS 1129 SCLC PDX model; 5 mg base/kg): 1260 ng·h/mL | inhibition at 0.3 µM (hERG potassium channel): 5.9 ± 1.3% | inhibition at 1 µM (hERG potassium channel): 17.8 ± 0.3% | inhibition at 3 µM (hERG potassium channel): 47 ± 1.9% | inhibition at 10 µM (hERG potassium channel): 77.3 ± 0.2% | maximum increase of QTcB interval vs vehicle ([8]; 10 mg base/kg IV): approximately 9% | maximum increase of QTcB interval vs vehicle ([8]; 15 mg base/kg IV): ~13% | maximum increase of QTcB interval vs vehicle ([8]; 20 mg base/kg IV): ~16% | maximum suppression of HR vs vehicle ([8]; 20 mg base/kg IV, 9 minutes into infusion): 19% | NOAEL for hemodynamic and ECG endpoints ([8]; IV): 10 mg base/kg | HR decrease at end of monitoring period ([8]; after 20 mg base/kg IV): 18% | QTcB interval increase at end of monitoring period ([8]; guinea pig, in vivo): 10% | concentration at 10 min ([8]; guinea pig, 5 mg base/kg IV): 1170 ng/mL | concentration at 10 min ([8]; guinea pig, 10 mg base/kg IV): 2360 ng/mL | concentration at 10 min ([8]; guinea pig, 15 mg base/kg IV): 4270 ng/mL | concentration at 10 min ([8]; guinea pig, 20 mg base/kg IV): 6710 ng/mL | IC50 (CYP3A4): > 50 µM | AUC(0-t) (in vivo; female): 9680 ng·h/mL | Cmax (in vivo; female): 850 ng/mL | AUC(0-t) (in vivo; male): 7960 ng·h/mL | Cmax (in vivo; male): 628 ng/mL | Median Tumor Volume Day 36 (MS-1 hMCC xenograft): 129 mm^3 | Median Tumor Volume Diff (Day 36 - Day -3) (MS-1 hMCC xenograft): 80 mm^3 | NOEL for CV and respiratory changes ([9]; BIW oral): 0.375 mg base/kg/dose | HNSTD and NOAEL ([9]; QW or BIW dose schedule): < 0.375 mg base/kg/dose | NOEL for CV and respiratory changes ([9]; QW oral): 0.75 mg base/kg/dose | reversibility of findings ([9]; dog, in vivo): complete recovery | AUC(0-t) ([9]; female, dog, in vivo): 435 ng·h/mL | AUC(0-t) ([9]; male, dog, in vivo): 503 ng·h/mL | moribund euthanasia ([9]; weekly oral 0.375 to 1.5 mg base/kg, Days 13 to 23): 11 animals | primary toxicities ([9]; ≥0.375 mg base/kg/dose, QW or BIW): mucosal ulceration, acute and/or subacute inflammation, and mucosal epithelial atrophy of GI tract tissues | LNCaP cell proliferation (LNCaP cells): significantly inhibits LNCaP cell proliferation | TGI [10]: −7%
